One may read the AUC(0-t) as exposure summed from dosing to a finite time, without extrapolation to infinity.

This series is described as follows: clinical. As to conditions: male, human, in vivo, sc, 7.5 mg.

Protocol: An 8‐week, open‐label, single‐arm study was performed with the objective of evaluating safety, tolerability, and PK following a single dose of 7.5 mg Gel‐LA in surgically castrated men with advanced PCa. Testosterone levels were not evaluated for this study population.
Men aged 45‐85 years with histologically or cytologically proven adenocarcinoma of the prostate who had undergone bilateral orchiectomy at least 2 months prior to study start were eligible. […]
All patients received a single dose of 7.5 mg LA suspended in the ATRIGEL Delivery System (34% w/w Poly [DL‐lactide‐co‐glycolide] and 66% w/w N‐methyl‐2‐pyrrolidone) as a subcutaneous injection into the upper right or upper left quadrant of the abdomen. […] LA concentrations were determined with solid‐phase extraction and high‐performance liquid chromatography followed by radioimmunoassay. […]
Serum concentrations of LA were summarized as mean, standard deviation (SD), % relative SD, median, minimum, and maximum levels. PK parameters included the maximum observed LA concentration (Cmax), time of maximum serum concentration (Tmax), time of last measured LA concentration in serum (tldc), and area under the LA serum concentration vs time curve (AUC). AUC was determined by linear trapezoidal interpolation, and actual times of blood draws were used for the PK analyses. […]

Compound `CCNC(=O)[C@@H]1CCCN1C(=O)[C@H](CCCNC(=N)N)NC(=O)[C@H](CC(C)C)NC(=O)[C@@H](CC(C)C)NC(=O)[C@H](Cc1ccc(O)cc1)NC(=O)[C@H](CO)NC(=O)[C@H](Cc1c[nH]c2ccccc12)NC(=O)[C@H](Cc1c[nH]cn1)NC(=O)[C@@H]1CCC(=O)N1` [Leuprolide Acetate, Leuprolide acetate] gave an exposure AUC(0-t) of 999 ng·h/mL.
